In patent US20250089713A1, “METHOD OF CONTROLLING OR REDUCING SENESCENCE IN PLANTS AND SEEDS” (Bedoukian Reseach, Inc., priority 2023, published 2025):
Values joined by “and” are separate entries in the source; they are usually repeats but may differ in a detail not shown here. Identical values can stand only once.

Assays:
[1] = test system: corn (Kandy Korn, extra sweet) plants; test: Reduction of plant wilting senescence, foliar spray on corn seedlings; type: in vivo; conditions: foliar spray of 1 mM (0.023% wt) in water at day 18, observed at day 25, n = 12, untreated 65%
Description: Seeds of corn (Kandy Korn, extra sweet) are planted in 2-inch pots. Seedlings are grown in 2-inch pots under 16-hour day/8-hour night greenhouse conditions. Plants are placed outdoors and receive 5-6 hours of natural, direct light 4-6 days per week. At day 18, seedlings receive one of two treatments: T1: untreated plants (n=11) and T2: treated, plants with foliar spray of 1 mM (0.023% wt) of methyl dihydrojasmonate (MDJ) in water. Plants are sprayed until the point of drip. (n=12). At day 25, plants are observed and senescence is recorded (percentage of wilting plants).

[2] = test system: seeds of the corn varietal Kandy Korn; test: Reduction of retarded seed germination rate senescence, seed soak (germination rate and radicle length); type: in vivo
Description: Non-germinated seeds of the corn varietal Kandy Korn are soaked in one of two treatment solutions: T1: untreated, only water and T2: treated, 1.5 mM (0.034% wt) of methyl dihydrojasmonate (MDJ) in water for 24 hours in 50 mL conical vessels. During the soak event, the seeds spend 12 hours in typical lighting conditions and 12 hours in darkness. Following seed treatment, the treatment solutions are drained from their vessels and a selection of seeds are taken from each vessel for planting. Six two-inch pots are planted for each treatment group, with three seeds per pot, for a total of 18 seeds planted per treatment. The unplanted seeds are allowed to remain in their original vessels in lighted conditions. In addition to determining the germination rate, the radicle lengths of the germinated seeds are measured.

## CCCCCC1C(=O)CCC1CC(=O)OC (stereo not shown) [MDJ, methyl dihydrojasmonate]
[1]
  % of plants with senescing plant wilting: 25%
[2]; corn seeds soaked 24 hours in 1.5 mM (0.034% wt) in water, n = 10, untreated (only water) 50%
  Germination Rate (percent of seeds that germinated): 100%
[2]; corn seeds soaked 24 hours in 1.5 mM in water, one value per seed, untreated 1-3 mm, listed as Methyl Dihydrojasmonate (MDJ)
  Radicle length measurements of unplanted germinated seeds (individual seeds): 5 mm (3×) and 6 mm (2×) and 4 mm (4×) and 3 mm
[2]; corn seeds soaked in 1.5 mM, FIG. 2
  average radicle length compared with untreated (only water): significantly longer
